We go through four compounds from ChEMBL document CHEMBL1201862, “PubChem BioAssay data set” (2004).

Usually EC50 stands for the concentration at which the effect is half-maximal. The IC50 is the midpoint of a concentration-inhibition curve. A word on the CC50: it is the concentration at which the toxic effect on the cells reaches its halfway point. One may read the AC50 as the concentration giving half of the maximal activity seen.

Active and inactive are the calls of the source.

The nature of assay [1]: NIH-3T3 fibroblast cytotoxicity, dose response, cytotoxicity control, cell-based, fluorescence, Alamar Blue, secondary assay (AID 2327).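 Also: NIH-3T3 mouse fibroblasts cultured with fluconazole at 8 µg/mL.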 Type of assay: functional. (In general: Resazurin is reduced to fluorescent resorufin, in cell work by metabolically active cells.)
The target in another assay is Exodeoxyribonuclease V (Escherichia coli (strain K12), UniProt P04993+P07648+P08394). The assay is described as follows: RecBCD inhibition via phage-restricted bacterial growth – absorbance, V66 E. coli, mutant T4 phage, counter-screen for AddAB inhibitor project, dose response (AID 492957). The assay is classed as functional, cell-based, Escherichia coli str. K-12 substr. MG1655.
Exodeoxyribonuclease V, sequence (P04993 whole entry): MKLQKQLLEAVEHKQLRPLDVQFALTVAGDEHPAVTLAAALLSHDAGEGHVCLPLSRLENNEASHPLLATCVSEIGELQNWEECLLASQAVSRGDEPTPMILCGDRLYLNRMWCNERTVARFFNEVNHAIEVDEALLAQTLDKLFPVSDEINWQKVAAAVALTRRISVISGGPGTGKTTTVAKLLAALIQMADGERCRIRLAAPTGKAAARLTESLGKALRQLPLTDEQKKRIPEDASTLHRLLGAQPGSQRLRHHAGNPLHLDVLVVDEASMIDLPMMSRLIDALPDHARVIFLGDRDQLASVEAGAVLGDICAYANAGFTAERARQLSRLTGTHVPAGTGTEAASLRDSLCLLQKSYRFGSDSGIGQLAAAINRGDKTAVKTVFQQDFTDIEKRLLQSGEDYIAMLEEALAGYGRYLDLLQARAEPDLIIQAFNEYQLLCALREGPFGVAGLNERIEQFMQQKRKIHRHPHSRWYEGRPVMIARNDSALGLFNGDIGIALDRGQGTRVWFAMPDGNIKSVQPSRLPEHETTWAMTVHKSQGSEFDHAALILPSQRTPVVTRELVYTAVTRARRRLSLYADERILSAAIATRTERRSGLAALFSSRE
Exodeoxyribonuclease V, sequence (P07648 whole entry): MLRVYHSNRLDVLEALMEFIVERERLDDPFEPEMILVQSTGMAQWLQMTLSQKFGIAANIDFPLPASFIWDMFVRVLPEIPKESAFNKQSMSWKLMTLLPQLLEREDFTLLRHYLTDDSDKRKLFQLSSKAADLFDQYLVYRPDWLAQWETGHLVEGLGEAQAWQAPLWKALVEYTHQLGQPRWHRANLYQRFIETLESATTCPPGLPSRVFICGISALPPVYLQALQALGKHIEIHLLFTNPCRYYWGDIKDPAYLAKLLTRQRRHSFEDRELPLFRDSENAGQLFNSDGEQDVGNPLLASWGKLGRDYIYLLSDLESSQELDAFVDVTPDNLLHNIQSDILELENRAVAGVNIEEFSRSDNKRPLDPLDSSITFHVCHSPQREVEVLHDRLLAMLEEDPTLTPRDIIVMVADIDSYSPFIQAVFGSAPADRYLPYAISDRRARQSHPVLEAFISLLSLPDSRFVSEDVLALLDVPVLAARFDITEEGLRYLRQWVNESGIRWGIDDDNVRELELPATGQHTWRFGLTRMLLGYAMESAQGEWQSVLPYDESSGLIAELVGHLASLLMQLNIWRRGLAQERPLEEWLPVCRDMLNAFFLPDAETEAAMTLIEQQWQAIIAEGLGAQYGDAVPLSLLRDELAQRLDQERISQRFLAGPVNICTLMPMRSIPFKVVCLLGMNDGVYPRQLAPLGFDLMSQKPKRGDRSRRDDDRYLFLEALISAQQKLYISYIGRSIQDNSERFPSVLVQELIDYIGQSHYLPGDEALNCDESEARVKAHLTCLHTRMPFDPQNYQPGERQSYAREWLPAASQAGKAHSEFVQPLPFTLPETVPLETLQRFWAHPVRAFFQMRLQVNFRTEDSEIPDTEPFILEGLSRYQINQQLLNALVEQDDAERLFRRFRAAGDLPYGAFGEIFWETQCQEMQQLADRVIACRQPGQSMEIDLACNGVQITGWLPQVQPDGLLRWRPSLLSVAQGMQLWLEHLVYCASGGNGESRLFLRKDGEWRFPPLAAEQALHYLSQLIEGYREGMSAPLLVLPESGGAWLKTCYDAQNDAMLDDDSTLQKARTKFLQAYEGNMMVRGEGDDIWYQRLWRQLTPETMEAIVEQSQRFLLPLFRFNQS
Exodeoxyribonuclease V, sequence (P08394 whole entry): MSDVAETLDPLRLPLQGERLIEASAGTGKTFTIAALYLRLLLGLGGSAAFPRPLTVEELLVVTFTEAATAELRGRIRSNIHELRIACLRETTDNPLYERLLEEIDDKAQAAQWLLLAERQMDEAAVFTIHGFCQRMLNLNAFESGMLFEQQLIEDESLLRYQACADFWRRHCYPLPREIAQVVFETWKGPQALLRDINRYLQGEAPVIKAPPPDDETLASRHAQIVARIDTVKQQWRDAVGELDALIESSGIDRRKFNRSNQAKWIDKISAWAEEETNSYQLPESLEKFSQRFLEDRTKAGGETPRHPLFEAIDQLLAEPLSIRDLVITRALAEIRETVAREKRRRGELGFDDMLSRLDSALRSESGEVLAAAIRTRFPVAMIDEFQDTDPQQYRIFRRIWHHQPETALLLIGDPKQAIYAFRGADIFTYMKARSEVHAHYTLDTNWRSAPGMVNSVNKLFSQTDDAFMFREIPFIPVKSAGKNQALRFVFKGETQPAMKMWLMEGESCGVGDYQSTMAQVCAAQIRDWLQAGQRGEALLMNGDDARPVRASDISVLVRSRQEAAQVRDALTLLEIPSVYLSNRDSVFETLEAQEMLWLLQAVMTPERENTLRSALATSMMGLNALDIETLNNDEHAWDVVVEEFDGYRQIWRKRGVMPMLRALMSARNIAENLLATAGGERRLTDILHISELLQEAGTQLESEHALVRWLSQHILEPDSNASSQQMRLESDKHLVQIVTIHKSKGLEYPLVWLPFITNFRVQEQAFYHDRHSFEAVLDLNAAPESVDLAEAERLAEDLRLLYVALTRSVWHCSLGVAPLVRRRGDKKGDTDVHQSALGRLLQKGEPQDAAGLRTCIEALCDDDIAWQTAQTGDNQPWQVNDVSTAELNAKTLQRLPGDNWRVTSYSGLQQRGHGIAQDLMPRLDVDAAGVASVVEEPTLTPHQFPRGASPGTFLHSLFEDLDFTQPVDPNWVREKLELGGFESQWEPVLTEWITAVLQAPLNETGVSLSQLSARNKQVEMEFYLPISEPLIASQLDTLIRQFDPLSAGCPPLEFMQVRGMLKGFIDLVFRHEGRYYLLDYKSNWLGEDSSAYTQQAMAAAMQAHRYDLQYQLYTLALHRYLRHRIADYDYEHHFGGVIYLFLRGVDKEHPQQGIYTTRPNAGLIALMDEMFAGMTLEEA

Assay [2] in a line: HGIII-sPLA2 enzyme inhibition potency – biochemical, QFRET, IC50, dose response (AID 743457).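 Also: green fluorescence rise as the enzyme cleaves BODIPY PC-A2 in liposomes.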
A short description of assay [3]: fluconazole-exposed Candida albicans growth modulators – fluorescence, retest, confirmation (AID 2467). The assay is classed as functional, cell-based.
Another assay deals with Vero. The assay is described as follows: cells. Conditions: Chlorocebus sabaeus. The assay is classed as functional.
Assay [4] is described as follows: Counterscreen for AddAB inhibitors: absorbance-based bacterial cell-based high throughput dose response assay for inhibitors of bacterial viability. [Related pubchem assays (depositor defined):AID435030, AID449728, AID449731, AID488942, AID488955, AID488956]. The assay is classed as functional. (Counterscreens check selectivity or assay interference.)
Assay [5] can be described thus: MIN6 cell viability loss – mouse insulinoma, cytotoxicity control, dose response (AID 2122).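 Also: confirmatory high-throughput counterscreen run to flag cytotoxic compounds.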 Type of assay: functional.
Assay [6] is described as follows: decrease of insulin promoter-GFP reporter – imaging, high-content screening, mouse beta cells (AID 1628). The assay is classed as functional. Conditions: MIN6.
The nature of assay [7]: viability loss of HMLE_sh_eGFP cells – cell-based, luminescence, counter-screen for HMLE_sh_ECad selective toxicity project, dose response (AID 463074).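 Also: HMLE human mammary epithelial cells expressing control shRNA against eGFP.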 The assay is classed as functional, Homo sapiens.
The nature of assay [8]: Luminescence Cell-Based Dose Retest to Confirm Inhibitors of Cancer Stem Cells. [Related pubchem assays (depositor defined):AID2717, AID2721]. Type of assay: functional. Conditions: Homo sapiens.
For assay [9], the target named is Sphingosine 1-phosphate receptor 2 (Homo sapiens, UniProt O95136). The assay is described as follows: Late stage counterscreen assay for S1P4 antagonists: Fluorescence dose response cell-based screening assay for antagonists of the Sphingosine 1-Phosphate Receptor 2 (S1P2). [Related pubchem assays (depositor defined):AID1510, AID1524, AID1692, AID1853, AID2332, AID489009, AID489017]. The assay is classed as functional.
Sphingosine 1-phosphate receptor 2, sequence (O95136 whole entry): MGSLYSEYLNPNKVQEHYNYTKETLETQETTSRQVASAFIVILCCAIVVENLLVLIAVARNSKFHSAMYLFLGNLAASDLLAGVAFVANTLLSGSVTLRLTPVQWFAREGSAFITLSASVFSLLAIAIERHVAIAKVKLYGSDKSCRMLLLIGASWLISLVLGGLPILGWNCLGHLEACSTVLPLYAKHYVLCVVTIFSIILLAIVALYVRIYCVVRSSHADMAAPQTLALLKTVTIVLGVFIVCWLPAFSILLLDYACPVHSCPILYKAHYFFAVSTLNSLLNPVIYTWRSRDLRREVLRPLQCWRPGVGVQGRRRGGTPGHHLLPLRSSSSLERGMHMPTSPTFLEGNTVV

For assay [10], the target named is Sphingosine 1-phosphate receptor 1 (Homo sapiens, UniProt P21453). The assay is described as follows: Late stage counterscreen assay for S1P4 antagonists: Fluorescence dose response cell-based screening assay for antagonists of the Sphingosine 1-Phosphate Receptor 1 (S1P1). [Related pubchem assays (depositor defined):AID1510, AID1524, AID1692, AID1853, AID2332, AID489009, AID489017]. The assay is classed as functional.
Sphingosine 1-phosphate receptor 1, sequence (P21453 whole entry): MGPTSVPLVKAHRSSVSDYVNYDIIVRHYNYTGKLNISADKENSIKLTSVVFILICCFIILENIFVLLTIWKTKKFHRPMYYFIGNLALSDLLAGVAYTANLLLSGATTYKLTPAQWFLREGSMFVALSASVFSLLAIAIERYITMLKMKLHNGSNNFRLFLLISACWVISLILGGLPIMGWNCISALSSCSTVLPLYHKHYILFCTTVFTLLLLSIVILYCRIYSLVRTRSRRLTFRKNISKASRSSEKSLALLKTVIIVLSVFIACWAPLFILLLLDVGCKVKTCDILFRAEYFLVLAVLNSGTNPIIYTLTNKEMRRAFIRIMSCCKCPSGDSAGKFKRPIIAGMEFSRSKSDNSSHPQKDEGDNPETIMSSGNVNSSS

The target in assay [11] is Sphingosine 1-phosphate receptor 5 (Homo sapiens, UniProt Q9H228). In words: Late stage counterscreen assay for S1P4 antagonists: Fluorescence dose response cell-based screening assay for antagonists of the Sphingosine 1-Phosphate Receptor 5 (S1P5). [Related pubchem assays (depositor defined):AID1510, AID1524, AID1692, AID1853, AID2332, AID489009, AID489017]. Type of assay: functional.
Sphingosine 1-phosphate receptor 5, sequence (Q9H228 whole entry): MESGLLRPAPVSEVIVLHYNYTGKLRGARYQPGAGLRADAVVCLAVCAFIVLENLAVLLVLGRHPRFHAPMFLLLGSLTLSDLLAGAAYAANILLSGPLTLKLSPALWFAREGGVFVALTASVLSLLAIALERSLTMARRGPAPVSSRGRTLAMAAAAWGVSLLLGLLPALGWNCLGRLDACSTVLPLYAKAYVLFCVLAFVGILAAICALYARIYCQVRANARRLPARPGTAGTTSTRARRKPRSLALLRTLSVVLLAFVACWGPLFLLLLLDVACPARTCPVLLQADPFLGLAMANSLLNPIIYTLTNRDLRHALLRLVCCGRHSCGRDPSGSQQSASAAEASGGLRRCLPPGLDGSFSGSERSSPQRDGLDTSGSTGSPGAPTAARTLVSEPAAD

For assay [12], the target named is Sphingosine 1-phosphate receptor 3 (Homo sapiens, UniProt Q99500). In words: Late stage counterscreen assay for S1P4 antagonists: Fluorescence dose response cell-based screening assay for antagonists of the Sphingosine 1-Phosphate Receptor 3 (S1P3). [Related pubchem assays (depositor defined):AID1510, AID1524, AID1692, AID1853, AID2332, AID489009, AID489017]. Type of assay: functional.
Sphingosine 1-phosphate receptor 3, sequence (Q99500 whole entry): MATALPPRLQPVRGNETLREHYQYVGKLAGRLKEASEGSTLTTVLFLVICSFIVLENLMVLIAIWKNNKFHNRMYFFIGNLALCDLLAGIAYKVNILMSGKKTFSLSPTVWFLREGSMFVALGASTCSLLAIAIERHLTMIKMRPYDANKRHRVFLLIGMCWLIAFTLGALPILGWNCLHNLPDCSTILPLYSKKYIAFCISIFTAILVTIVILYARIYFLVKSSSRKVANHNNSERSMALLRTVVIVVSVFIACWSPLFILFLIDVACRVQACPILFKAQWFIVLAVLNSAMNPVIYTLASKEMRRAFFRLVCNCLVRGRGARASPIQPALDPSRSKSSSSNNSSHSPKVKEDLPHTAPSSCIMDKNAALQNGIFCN

With `O=C(NC(=S)NNC(=O)c1cc2ccccc2cc1O)c1ccco1`, the EC50 in assay [1] is > 160 µM (inactive); in [3], 2.19 µM (active). Further, the IC50 at Exodeoxyribonuclease V was > 119 µM (inactive); in assay [2], > 40.6 µM (inactive); in assay [4], > 119 µM (inactive). For the same compound, the CC50 in the assay with Vero is 14.4 µM (active).

As for `CCn1c(SCc2ccccc2)nnc1-c1cccs1`, the IC50 in assay [5] was 2.36 µM (active); in assay [6] it was 3.63 µM (active).

In the case of `Cc1ccc(-c2ccc(OC(=O)c3ccc(O)nc3)c(C)c2)cc1`, the results for the AC50 in assay [7] and in assay [8] were 29.1 µM (active) and 17.5 µM (active), respectively.

Take `COc1cccc(OC)c1NC(=O)c1ccc(-c2cc(Cl)ccc2Cl)o1`: the IC50 in [9] was 20.7 µM (inactive); in [10], > 25 µM (inactive); in assay [11] it was > 25 µM (inactive); in assay [12], 10.5 µM (inactive).
